Laboratory results published in US12096769B2, “Mechanism of urea/solid acid interaction under storage conditions and storage stable solid compositions comprising urea and acid” (ECOLAB USA INC., priority 2017, dated 2024).

Key:
Assay type in all cases: physicochemical
[1] = Swelling of tablets made with various acids as the acid filler, Example 2
[2] = pH in 17 grains per gallon (gpg) water, Example 5; conditions: Dose 625 ppm
Description: The pH of the urea/citric acid complex was also compared to those of citric acid and monosodium citrate.

[3] = Tablet dimensional change at 40° C. and 90% humidity, Example 6; conditions: acid filler of the formulation
Description: A formulation using urea/citric acid complex as the acid filler were compared to those using urea or a mixture of urea and citric acid. In this Example, tablets were made according to the formulations in Table 8, then placed at 40° C. and 90% humidity. Their dimensional changes were measured during two-weeks period of time.

[4] = Block stability in a dispenser (swelling after 1 minute soak in water), Example 7; conditions: soaked in 1 inch of water at 43.3° C. (110° F.) for 1 minute; up to 18 hours
Description: Various blocks made from different formulations were screened for their block stability in a dispenser. During the experiments, the blocks were soaked in 1 inch of water at 43.3° C. (110° F.) for 1 minute, then measured for their swelling as a function of time.

Row | Swelling of the tablet using the acid as the filler ([1]; 4 Week at 40° C.) | SMILES | pH in 17 gpg Water [2] | other results
1 | Weeping | CC(O)C(=O)O (centres unmarked) [Lactic Acid] |  | State of the tablet using the acid as the filler ([1]; at 50° C.): melted
2 |  | O=C(O)CC(O)(CC(=O)O)C(=O)O [Citric Acid] | 4.45 | 
3 | Weeping | O=C(O)CC(=O)O [Malonic Acid] |  | 
4 |  | O=C([O-])CC(O)(CC(=O)O)C(=O)O.[Na+] [Monosodium citrate] | 5.6 | 
5 |  | NC(N)=O.O=C(O)CC(O)(CC(=O)O)C(=O)O [Urea-Citrate, urea-citric acid complex] | 4.8 | Swelling of the tablet using the acid as the filler ([1]; at 2 weeks, 40° C.): 0.5% at 2 weeks; Storage stability as measured by percentage swelling (in words) [3]: best storage stability; Swelling of the block after soak (in words) [4]: swelling is minimal
6 | Melted | O=C(O)/C=C\C(=O)O [Maleic Acid] |  | 
7 | ~5% | O=C(O)CC(O)C(=O)O (centres unmarked) [Malic Acid] |  | 
